Here are results for eight molecules from ChEMBL document CHEMBL1201862, “PubChem BioAssay data set” (2004).

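Cultured in 96-well plates, cells were exposed to test compound for 48 hours across five concentrations. Here, GI50 denotes the concentration required for 50% inhibition of growth.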 The source made the active and inactive calls. No stated cut-off is given here; in the data, active = GI50 up to about 1.1 µM and inactive = higher.

Common to all, as to experiment: inhibition of tumour cell growth, NCI panel, 48 h
Assay [1] concerns SF-539.
For assay [2], the system named is EKVX.
Assay [3] has as its system HT-29.
For assay [4], the system named is A549.
Assay [5] concerns 786-0.
Assay [6] relates to HCT-116.
Assay [7] concerns UO-31.
The test system of assay [8] is M14.
Assay [9] deals with T47D.
The test system of assay [10] is RPMI-8226.
For assay [11], the system named is HCC 2998.
The test system of assay [12] is OVCAR-3.
For assay [13], the system named is KM12.
The subject of assay [14] is HCT-15.
Assay [15] has as its system Hs-578T.
The test system of assay [16] is NCI-H522.
In assay [17] the test system is PC-3.
The subject of assay [18] is MDA-N.
In assay [19] the test system is NCI-H460.
Assay [20] relates to BT-549.

Regarding `CCCCOC(=O)Nc1ccc(S(=O)(=O)Nc2ccccc2Cl)cc1`, the GI50 in assay [1] is 17.6 µM (inactive); in [2], 20.7 µM (inactive); in [3], 21 µM (inactive); in assay [4] it was 32.5 µM (inactive); in assay [5], 21.5 µM (inactive); in [6], 22.4 µM (inactive). For the same molecule, the GI50 was 25.6 µM (inactive) in assay [7]; 19.8 µM (inactive) in assay [8]; 26.5 µM (inactive) in [9]; 16.3 µM (inactive) in assay [10]; 14.1 µM (inactive) in assay [11]; 19.1 µM (inactive) in [12]. Further, the GI50 in assay [13] is 24 µM (inactive); in assay [14], 21.3 µM; in assay [15], 21.5 µM (inactive); in assay [16], 18.5 µM (inactive); in [17], 24.9 µM (inactive); in assay [18], 17.6 µM (inactive). Besides, the GI50 was 18.2 µM (inactive) in assay [19] and 22.5 µM (inactive) in assay [20].

Take `Cc1cn(CCCCCCC2=NCCCN2)c(=O)[nH]c1=O`: the GI50 in [1], in assay [2], in assay [3], in assay [4], in assay [5] and in assay [6] was > 100 µM (inactive) each time. The GI50 in assay [7], in [8], in [9], in assay [10], in assay [11] and in assay [12] was > 100 µM (inactive) each time. In addition, the GI50 in [13] is > 100 µM (inactive); in assay [14], more than 100 µM; in assay [15], > 100 µM (inactive); in assay [16], > 100 µM (inactive); in assay [17] it was > 100 µM (inactive); in assay [18], > 100 µM (inactive). Further, the GI50 in [19] and in assay [20] was > 100 µM (inactive) throughout.

In the case of `CC(=O)Nc1ccc(Nc2nc(=O)[nH]c(=O)[nH]2)cc1`, the GI50 in [1], in [2], in assay [3], in [4], in assay [5] and in assay [6] was > 100 µM (inactive) throughout. Moreover, the GI50 in assay [7] was 28.6 µM (inactive); in assay [8] it was > 100 µM (inactive); in assay [9], > 100 µM (inactive); in assay [10] it was > 100 µM (inactive); in assay [11], > 100 µM (inactive); in assay [12], > 100 µM (inactive). Moreover, the GI50 in assay [13] is > 100 µM (inactive); in assay [14], more than 100 µM; in assay [15], > 100 µM (inactive); in assay [16] it was > 100 µM (inactive); in [17] it was > 100 µM (inactive); in assay [18] it was > 100 µM (inactive). The GI50 in assay [19] and in assay [20] was > 100 µM (inactive) in each case.

In the case of `O=C(O)C(Cl)(c1ccccc1)c1ccccc1`, the GI50 in assay [1], in assay [2], in [3], in [4], in assay [5] and in assay [6] was > 100 µM (inactive) throughout. Further, the GI50 in assay [7], in [8], in assay [9], in [10], in assay [11] and in assay [12] was > 100 µM (inactive) each time. For the same molecule, the GI50 in assay [13] was > 100 µM (inactive); in [14], more than 100 µM; in assay [15], > 100 µM (inactive); in assay [16], > 100 µM (inactive); in assay [17], > 100 µM (inactive); in assay [18] it was > 100 µM (inactive). For the same molecule, the GI50 in [19] and in [20] was > 100 µM (inactive) each time.

As to `COc1c(C)c2c(c(=O)c3c(C)cccc3n2C)c2c1c(=O)c1c(C)cccc1n2C`, the GI50 in assay [1], in assay [2], in [3], in [4], in assay [5] and in assay [6] was > 10 µM (inactive) in each case. For the same molecule, the GI50 is > 10 µM (inactive) in [7]; > 10 µM (inactive) in [8]; > 10 µM (inactive) in assay [9]; 9.27 µM (inactive) in [10]; > 10 µM (inactive) in assay [11]; > 10 µM (inactive) in assay [12]. The GI50 is > 10 µM (inactive) in assay [13]; more than 10 µM in assay [14]; > 10 µM (inactive) in assay [15]; > 10 µM (inactive) in assay [16]; > 10 µM (inactive) in assay [17]; > 10 µM (inactive) in assay [18]. The GI50 in [19] was 5.62 µM (inactive); in assay [20], > 10 µM (inactive).

For the molecule `CCCCc1cc2c(C)cc(=O)oc2c(O)c1O`, the GI50 was 21.8 µM (inactive) in assay [1]; 52.8 µM (inactive) in assay [2]; 27.9 µM (inactive) in assay [3]; 33.2 µM (inactive) in [4]; 33.9 µM (inactive) in assay [5]; 30.5 µM (inactive) in assay [6]. Also, the GI50 was 20.3 µM (inactive) in assay [7]; 31.6 µM (inactive) in assay [8]; 21.7 µM (inactive) in [9]; 17.5 µM (inactive) in assay [10]; 3.15 µM (inactive) in assay [11]; 29.1 µM (inactive) in assay [12]. In addition, the GI50 was 25.1 µM (inactive) in assay [13]; 26.9 µM in assay [14]; 22.9 µM (inactive) in [15]; 21.5 µM (inactive) in assay [16]; 21.3 µM (inactive) in [17]; 38.5 µM (inactive) in assay [18]. In addition, the GI50 in [19] is 22.6 µM (inactive); in assay [20], 14.6 µM (inactive).

Take `Clc1ccc(OCC2NC3CCC2CC3)cn1` (stereo not given): the GI50 was 20.7 µM (inactive) in assay [1]; 26.3 µM (inactive) in assay [2]; 17.9 µM (inactive) in assay [3]; 37.9 µM (inactive) in assay [4]; 18.3 µM (inactive) in assay [5]; 20.7 µM (inactive) in assay [6]. The GI50 in assay [7] is 2.45 µM (inactive); in assay [8] it was 21.2 µM (inactive); in assay [9], 29.8 µM (inactive); in [10] it was 13.4 µM (inactive); in [11], 16.6 µM (inactive); in assay [12] it was 60.4 µM (inactive). Moreover, the GI50 is 18.4 µM (inactive) in assay [13]; 20.7 µM in [14]; 57.1 µM (inactive) in assay [15]; 19 µM (inactive) in assay [16]; 25.6 µM (inactive) in [17]; 16.8 µM (inactive) in assay [18]. For the same molecule, the GI50 in [19] is 21.3 µM (inactive); in assay [20], 68.7 µM (inactive).

With `C#CCn1c(I)cc2c(c1=O)COC(=O)[C@]2(O)CC`, the GI50 in assay [1], in [2], in [3], in assay [4], in assay [5] and in [6] was > 100 µM (inactive) throughout. Further, the GI50 in assay [7], in assay [8], in assay [9], in assay [10], in [11] and in [12] was > 100 µM (inactive) in each case. The GI50 was > 100 µM (inactive) in assay [13]; more than 100 µM in assay [14]; > 100 µM (inactive) in assay [15]; > 100 µM (inactive) in assay [16]; > 100 µM (inactive) in assay [17]; > 100 µM (inactive) in [18]. The GI50 in assay [19] and in [20] was > 100 µM (inactive) throughout.
